Our source for the solubility values is ChEMBL document CHEMBL3879902, “Compounds and methods for kinase modulation, and indications thereof” (2012).

The nature of series [1]: Aqueous solubility of the compound in simulated intestinal fluid at pH 4.5. The format is ADME. To be noted: simulated gi fluid.
Series [2] in a line: Aqueous solubility of the compound in simulated intestinal fluid at pH 6.8. Conditions: simulated gi fluid. The format is ADME.
Series [3] in a line: Aqueous solubility of the compound in simulated gastric fluid at pH 1.5. The series is classed as ADME. Conditions: simulated gi fluid.
A short description of series [4]: Aqueous solubility of the compound in hepes buffer at pH 7.4. The series is classed as physicochemical.

`COc1ncc(-c2cnc3[nH]cc(C(=O)c4c(F)ccc(NS(=O)(=O)c5ccccc5F)c4F)c3c2)cn1`: the solubility entry in series [1], in series [2], in series [3] and in series [4] was “Insoluble” each time.

Regarding `CCCS(=O)(=O)Nc1ccc(F)c(C(=O)c2c[nH]c3ncc(-c4ccc(NC(C)=O)nc4)cc23)c1F`, the solubility entry in series [1] was “Insoluble”; in series [2], “Insoluble”; in series [3], “Soluble”; in series [4] it was “Insoluble”.

Turning to `Cc1cnc2[nH]cc(C(=O)c3c(F)ccc(NS(=O)(=O)c4c(F)cccc4F)c3F)c2c1`, the solubility entry was “Insoluble” in series [1], “Soluble” in series [2], “Soluble” in series [3] and “Soluble” in series [4].

As for `COc1ncc(-c2cnc3[nH]cc(C(=O)c4c(F)ccc(NS(=O)(=O)c5cc(F)ccc5F)c4F)c3c2)cn1`, the solubility result in series [1], in series [2], in series [3] and in series [4] was “Insoluble” throughout.

In the case of `CCCS(=O)(=O)Nc1ccc(F)c(C(=O)c2c[nH]c3ncc(-c4ccc(S(N)(=O)=O)cc4)cc23)c1F`, the solubility entry in series [1], in series [2], in series [3] and in series [4] was “Insoluble” in each case.

On to `CCCS(=O)(=O)Nc1ccc(F)c(C(=O)c2c[nH]c3ncc(-c4ccc(S(=O)(=O)NC5CC5)cc4)cc23)c1F`, for which the solubility result in series [1], in series [2], in series [3] and in series [4] was “Insoluble” throughout.

`CCCS(=O)(=O)Nc1ccc(F)c(C(=O)c2c[nH]c3ncc(-c4cnn(Cc5ccccc5)c4)cc23)c1F`: the solubility result in series [1], in series [2], in series [3] and in series [4] was “Insoluble” in each case.

As for `N#Cc1cnc2[nH]cc(C(=O)c3c(F)ccc(NS(=O)(=O)c4ccccc4)c3F)c2c1`, the solubility result in series [1] is “Insoluble”; in series [2] it was “Soluble”; in series [3], “Insoluble”; in series [4], “Soluble”.

Turning to `N#Cc1cnc2[nH]cc(C(=O)c3cccc(NS(=O)(=O)c4ccccc4F)c3F)c2c1`, the solubility entry in series [1], in series [2], in series [3] and in series [4] was “Soluble” throughout.

For the compound `CCCS(=O)(=O)Nc1ccc(F)c(C(=O)c2c[nH]c3ncc(-c4ccnc(F)c4)cc23)c1F`, the solubility entry in series [1], in series [2], in series [3] and in series [4] was “Insoluble” in each case.

On to `CCCS(=O)(=O)Nc1ccc(F)c(C(=O)c2c[nH]c3ncc(-c4cncnc4)cc23)c1F`, for which the solubility result in series [1], in series [2], in series [3] and in series [4] was “Soluble” in each case.

For `CCCS(=O)(=O)Nc1ccc(F)c(C(=O)c2c[nH]c3ncc(-c4ccc(C(=O)NCC)nc4)cc23)c1F`, the solubility result in series [1], in series [2], in series [3] and in series [4] was “Insoluble” throughout.

On to `N#Cc1cnc2[nH]cc(C(=O)c3cccc(NS(=O)(=O)c4ccccc4)c3F)c2c1`, for which the solubility result was “Insoluble” in series [1], “Soluble” in series [2], “Insoluble” in series [3] and “Soluble” in series [4].

For `CCCS(=O)(=O)Nc1ccc(F)c(C(=O)c2c[nH]c3ncc(-c4ccc(S(=O)(=O)N(C)C)cc4)cc23)c1F`, the solubility result in series [1], in series [2], in series [3] and in series [4] was “Insoluble” throughout.

In the case of `COc1ncc(-c2cnc3[nH]cc(C(=O)c4c(F)ccc(NS(=O)(=O)c5c(F)cccc5F)c4F)c3c2)cn1`, the solubility result in series [1] is “Insoluble”; in series [2] it was “Insoluble”; in series [3], “Insoluble”; in series [4], “Soluble”.

Take `CCCS(=O)(=O)Nc1ccc(F)c(C(=O)c2c[nH]c3ncc(-c4cnc(N(C)C)nc4)cc23)c1F`: the solubility result in series [1] was “Insoluble”; in series [2] it was “Insoluble”; in series [3] it was “Soluble”; in series [4], “Insoluble”.

As for `COc1ncc(-c2cnc3[nH]cc(C(=O)c4c(F)ccc(NS(=O)(=O)c5cccc(F)c5)c4F)c3c2)cn1`, the solubility result in series [1] is “Insoluble”; in series [2] it was “Insoluble”; in series [3] it was “Insoluble”; in series [4] it was “Soluble”.

As to `CCCS(=O)(=O)Nc1ccc(F)c(C(=O)c2c[nH]c3ncc(-c4cnn(CCN5CCOCC5)c4)cc23)c1F`, the solubility entry in series [1] is given as “Soluble”; in series [2], “Insoluble”; in series [3], “Soluble”; in series [4], “Insoluble”.

Turning to `N#Cc1cnc2[nH]cc(C(=O)c3cccc(NS(=O)(=O)c4cc(F)ccc4F)c3F)c2c1`, the solubility entry in series [1] was “Insoluble”; in series [2], “Soluble”; in series [3] it was “Insoluble”; in series [4], “Soluble”.

In the case of `CCCS(=O)(=O)Nc1ccc(F)c(C(=O)c2c[nH]c3ncc(-c4ccc(OCCCN(C)C)nc4)cc23)c1F`, the solubility entry is on record as “Soluble” in series [1], “Insoluble” in series [2], “Soluble” in series [3] and “Insoluble” in series [4].

Regarding `COc1ccnc2[nH]cc(C(=O)c3c(F)ccc(NS(=O)(=O)c4cccc(F)c4)c3F)c12`, the solubility entry in series [1], in series [2], in series [3] and in series [4] was “Soluble” in each case.

As for `N#Cc1cnc2[nH]cc(C(=O)c3cccc(NS(=O)(=O)c4cccc(F)c4)c3F)c2c1`, the solubility result in series [1] is “Insoluble”; in series [2], “Soluble”; in series [3] it was “Insoluble”; in series [4], “Soluble”.

Turning to `CCCS(=O)(=O)Nc1ccc(F)c(C(=O)c2c[nH]c3ncc(-c4ccc(F)nc4)cc23)c1F`, the solubility entry in series [1], in series [2], in series [3] and in series [4] was “Insoluble” throughout.

Regarding `CCCS(=O)(=O)Nc1ccc(F)c(C(=O)c2c[nH]c3ncc(-c4cncc(S(C)(=O)=O)c4)cc23)c1F`, the solubility entry in series [1] is listed as “Insoluble”; in series [2] it was “Insoluble”; in series [3], “Soluble”; in series [4], “Soluble”.

For `O=C(c1c(F)ccc(NS(=O)(=O)c2cccnc2)c1F)c1c[nH]c2ncc(Cl)cc12`, the solubility result in series [1], in series [2], in series [3] and in series [4] was “Soluble” in each case.

In the case of `CCCS(=O)(=O)Nc1ccc(F)c(C(=O)c2c[nH]c3ncc(-c4cn[nH]c4)cc23)c1F`, the solubility result in series [1], in series [2], in series [3] and in series [4] was “Insoluble” in each case.

For `CCCS(=O)(=O)Nc1ccc(F)c(C(=O)c2c[nH]c3ncc(-c4ccc(C(=O)NC5CC5)nc4)cc23)c1F`, the solubility entry in series [1], in series [2], in series [3] and in series [4] was “Insoluble” in each case.

In the case of `CCCS(=O)(=O)Nc1ccc(F)c(C(=O)c2c[nH]c3ncc(-c4ccc(C(=O)NC)nc4)cc23)c1F`, the solubility result in series [1], in series [2], in series [3] and in series [4] was “Insoluble” in each case.

Consider `Cc1cnc2[nH]cc(C(=O)c3c(F)ccc(NS(=O)(=O)c4cccnc4)c3F)c2c1`, for which the solubility entry in series [1], in series [2], in series [3] and in series [4] was “Soluble” throughout.

On to `CCCS(=O)(=O)Nc1ccc(F)c(C(=O)c2c[nH]c3ncc(-c4ccc(OC)nc4OC)cc23)c1F`, for which the solubility entry in series [1], in series [2], in series [3] and in series [4] was “Insoluble” in each case.

As to `CCCS(=O)(=O)Nc1ccc(F)c(C(=O)c2c[nH]c3ncc(-c4ccc(NS(C)(=O)=O)cc4)cc23)c1F`, the solubility entry in series [1], in series [2], in series [3] and in series [4] was “Insoluble” in each case.

`N#Cc1cnc2[nH]cc(C(=O)c3cccc(NS(=O)(=O)c4cccnc4)c3F)c2c1`: the solubility entry in series [1], in series [2], in series [3] and in series [4] was “Soluble” throughout.

Consider `CCCS(=O)(=O)Nc1ccc(F)c(C(=O)c2c[nH]c3ncc(-c4ccc(S(C)(=O)=O)cc4)cc23)c1F`, for which the solubility result in series [1], in series [2], in series [3] and in series [4] was “Insoluble” in each case.

For the compound `CCCS(=O)(=O)Nc1ccc(F)c(C(=O)c2c[nH]c3ncc(-c4ccc(S(=O)(=O)N5CCOCC5)cc4)cc23)c1F`, the solubility entry in series [1], in series [2], in series [3] and in series [4] was “Insoluble” throughout.

Turning to `CCCS(=O)(=O)Nc1ccc(F)c(C(=O)c2c[nH]c3ncc(-c4cnc(SC)nc4)cc23)c1F`, the solubility result in series [1], in series [2], in series [3] and in series [4] was “Insoluble” each time.
